Experimental data taken from patent US8372967B2, “Compounds and methods for modulating expression of GCCR” (Isis Pharmaceuticals, Inc., priority 2006, dated 2013).

Columns and labels:
Assay type in all cases: in vivo, mouse
[1] = Triglyceride, cholesterol and glucose levels, pre-bleed and post-bleed, GCGR study (Table 34); design: Triglyceride (TRIG) Pre-Bleed / Triglyceride (TRIG) Post-Bleed / Cholesterol (CHOL) Pre-Bleed / Cholesterol (CHOL) Post-Bleed / Glucose Pre-Bleed / Glucose Post-Bleed: unit not given here
Experimental: (§1) Eight-week old male C57/BL6 mice (Jackson Laboratory, Bar Harbor, Me.) were administered a single dose of GCGR oligonucleotide by intraperitoneal injection at a concentration of […]. Each dose group consisted of four animals. Shown in Table 31 are the sequences, motifs and conjugates of the GCGR antisense compounds used in this study. Bolded residues indicate 2′-O-methoxyethyl (2′-MOE) moieties. All compounds comprise phosphorothioate internucleoside linkages throughout and each cytosine is replaced with 5-methylcytosine. ISIS 386626, ISIS 386627 and ISIS 386628 further comprise a C16 conjugate group attached to the 2′-O position of the sugar via a diamide linkage (2′-OCH2C(═O)N(H)(CH2)4N(H)C(═O)—(CH2)15CH3). GCGR antisense compounds target published GCGR sequences, including Genbank® Accession No. BC031885.1 (SEQ ID NO: 7).
(§2) Mice were sacrificed 48 hours following injection to determine serum transaminase levels (Table 32); liver, white adipose tissue (WAT), spleen and kidney weight (Table 33); cholesterol, triglyceride and glucose levels (Table 34); GCGR mRNA levels (Tables 35-41); and full-length and total oligonucleotide concentration in liver and kidney (Table 42). Endpoints were assessed using methods described herein and well known to those of ordinary skill in the art. Data is included from a pre-treatment bleed (Pre-Bleed) and post-treatment bleed (Post-Bleed).

GCGR mRNA = GCGR mRNA levels in liver, C57/BL6 mice, single i.p. dose (Tables 35-41)
Experimental: Prior to quantitative PCR analysis, primer-probe sets specific to the target gene being measured were evaluated for their ability to be “multiplexed” with a GAPDH amplification reaction. After isolation the RNA is subjected to sequential reverse transcriptase (RT) reaction and real-time PCR, both of which are performed in the same well. RT and PCR reagents were obtained from Invitrogen Life Technologies (Carlsbad, Calif.). […] The RT reaction was carried out by incubation for 30 minutes at 48° C. Following a 10 minute incubation at 95° C. to activate the PLATIN 9M® Taq, 40 cycles of a two-step PCR protocol were carried out: 95° C. for 15 seconds (denaturation) followed by 60° C. for 1.5 minutes (annealing/extension).
170 μL of RiboGreen® working reagent (RiboGreen® reagent diluted 1:350 in 10 mM Tris-HCl, 1 mM EDTA, pH 7.5) was pipetted into a 96-well plate containing 30 μL purified cellular RNA. The plate was read in a CytoFluor® 4000 (PE Applied Biosystems) with excitation at 485 nm and emission at 530 nm.
as §1, §2
To determine whether the phenotypic changes shown above correlated with a decrease in GCGR mRNA, treated animals were evaluated for levels of target mRNA in liver by real time PCR according to methods described herein. Tables 35 to 41 show results from direct comparisons of the antisense compounds targeting GCGR nucleic acid for their effect on target expression. Results are expressed as percent of saline control.

[2] = ALT & AST levels and toxic effects, GCGR study (Table 32); conditions: C57/BL6 mice, pre-treatment bleed
Experimental: as §1, §2

[3] = Organ weights: liver, WAT, spleen, kidney, GCGR study (Table 33); conditions: 48 h
Experimental: as §1, §2

[4] = 6.25 mg/kg group, pre-treatment bleed
[5] = 6.25 mg/kg single i.p., post-treatment bleed
[6] = 12.5 mg/kg group, pre-treatment bleed
[7] = 12.5 mg/kg single i.p., post-treatment bleed
[8] = 25 mg/kg group, pre-treatment bleed
[9] = 25 mg/kg single i.p., post-treatment bleed
[10] = 50 mg/kg group, pre-treatment bleed
[11] = 50 mg/kg single i.p., post-treatment bleed

ISIS 386626: GCGR short antisense compound with C16 conjugate group at 2′-O via diamide linkage (GCTTCTCCATCATA; chemistry not fully specified)
Glucose levels (post-bleed) ([1]; C57/BL6 mice, 48 hours after single i.p. dose): decreased in a dose-dependent manner
GCGR mRNA expression (GCGR mRNA; single i.p. dose 6.25, 12.5, 25 or 50 mg): greatest decrease in target mRNA

386628 (antisense TGTCTTGCTGCTTT; chemistry not fully specified) [compound 386628]
Cholesterol (CHOL) Pre-Bleed [1, 4]: 83
Triglyceride (TRIG) Pre-Bleed [1, 4]: 117
Cholesterol (CHOL) Post-Bleed [1, 5]: 85
Triglyceride (TRIG) Post-Bleed [1, 5]: 121
Cholesterol (CHOL) Pre-Bleed [1, 6]: 90
Triglyceride (TRIG) Pre-Bleed [1, 6]: 90
Cholesterol (CHOL) Post-Bleed [1, 7]: 94
Glucose Post-Bleed [1, 7]: 240
Triglyceride (TRIG) Post-Bleed [1, 7]: 123
Cholesterol (CHOL) Pre-Bleed [1, 8]: 84
Glucose Pre-Bleed [1, 8]: 210
Triglyceride (TRIG) Pre-Bleed [1, 8]: 102
Cholesterol (CHOL) Post-Bleed [1, 9]: 85
Triglyceride (TRIG) Post-Bleed [1, 9]: 129
Cholesterol (CHOL) Pre-Bleed [1, 10]: 88
Triglyceride (TRIG) Pre-Bleed [1, 10]: 102
Cholesterol (CHOL) Post-Bleed [1, 11]: 95
Triglyceride (TRIG) Post-Bleed [1, 11]: 98
ALT Pre-Bleed ([2]; dose group 6.25 mg/kg): 22 IU/L
AST Pre-Bleed ([2]; dose group 6.25 mg/kg): 40 IU/L
ALT Pre-Bleed ([2]; dose group 12.5 mg/kg): 28 IU/L
AST Pre-Bleed ([2]; dose group 12.5 mg/kg): 42 IU/L
ALT Pre-Bleed ([2]; dose group 25 mg/kg): 24 IU/L
AST Pre-Bleed ([2]; dose group 25 mg/kg): 40 IU/L
ALT Pre-Bleed ([2]; dose group 50 mg/kg): 28 IU/L
AST Pre-Bleed ([2]; dose group 50 mg/kg): 44 IU/L
Organ Weights: Kidney ([3]; 6.25 mg/kg single i.p.): 102 % saline control
Organ Weights: Liver ([3]; 6.25 mg/kg single i.p.): 98 % saline control
Organ Weights: Spleen ([3]; 6.25 mg/kg single i.p.): 151 % saline control
Organ Weights: WAT ([3]; 6.25 mg/kg single i.p.): 106 % saline control
Organ Weights: Kidney ([3]; 12.5 mg/kg single i.p.): 99 % saline control
Organ Weights: Liver ([3]; 12.5 mg/kg single i.p.): 101 % saline control
Organ Weights: Spleen ([3]; 12.5 mg/kg single i.p.): 114 % saline control
Organ Weights: WAT ([3]; 12.5 mg/kg single i.p.): 111 % saline control
Organ Weights: Kidney ([3]; 25 mg/kg single i.p.): 109 % saline control
Organ Weights: Liver ([3]; 25 mg/kg single i.p.): 102 % saline control
Organ Weights: Spleen ([3]; 25 mg/kg single i.p.): 113 % saline control
Organ Weights: WAT ([3]; 25 mg/kg single i.p.): 97 % saline control
Organ Weights: Kidney ([3]; 50 mg/kg single i.p.): 99 % saline control
Organ Weights: Liver ([3]; 50 mg/kg single i.p.): 104 % saline control
Organ Weights: Spleen ([3]; 50 mg/kg single i.p.): 126 % saline control
Organ Weights: WAT ([3]; 50 mg/kg single i.p.): 100 % saline control
GCGR mRNA levels (GCGR mRNA; 6.25 mg/kg, Table 38 comparison ISIS 148364 & ISIS 386628): 77% of saline control
GCGR mRNA levels (GCGR mRNA; 6.25 mg/kg, Table 41 comparison ISIS 386628 & ISIS 386594): 97% of saline control
GCGR mRNA levels (GCGR mRNA; 12.5 mg/kg, Table 38 comparison ISIS 148364 & ISIS 386628): 53% of saline control
GCGR mRNA levels (GCGR mRNA; 12.5 mg/kg, Table 41 comparison ISIS 386628 & ISIS 386594): 38% of saline control
GCGR mRNA levels (GCGR mRNA; 25 mg/kg, Table 38 comparison ISIS 148364 & ISIS 386628): 18% of saline control
GCGR mRNA levels (GCGR mRNA; 25 mg/kg, Table 41 comparison ISIS 386628 & ISIS 386594): 13% of saline control
GCGR mRNA levels (GCGR mRNA; 50 mg/kg, Table 38 comparison ISIS 148364 & ISIS 386628): 2% of saline control
GCGR mRNA levels (GCGR mRNA; 50 mg/kg, Table 41 comparison ISIS 386628 & ISIS 386594): 4% of saline control

386626 (antisense GCTTCTCCATCATA; chemistry not fully specified) [compound 386626]
Cholesterol (CHOL) Pre-Bleed [1, 4]: 85
Triglyceride (TRIG) Pre-Bleed [1, 4]: 86
Cholesterol (CHOL) Post-Bleed [1, 5]: 90
Triglyceride (TRIG) Post-Bleed [1, 5]: 162
Cholesterol (CHOL) Pre-Bleed [1, 6]: 82
Triglyceride (TRIG) Pre-Bleed [1, 6]: 100
Cholesterol (CHOL) Post-Bleed [1, 7]: 76
Triglyceride (TRIG) Post-Bleed [1, 7]: 148
Cholesterol (CHOL) Pre-Bleed [1, 8]: 87
Triglyceride (TRIG) Pre-Bleed [1, 8]: 100
Cholesterol (CHOL) Post-Bleed [1, 9]: 72
Triglyceride (TRIG) Post-Bleed [1, 9]: 187
Cholesterol (CHOL) Pre-Bleed [1, 10]: 79
Triglyceride (TRIG) Pre-Bleed [1, 10]: 87
Cholesterol (CHOL) Post-Bleed [1, 11]: 57
Triglyceride (TRIG) Post-Bleed [1, 11]: 163
ALT Pre-Bleed ([2]; dose group 6.25 mg/kg): 26 IU/L
AST Pre-Bleed ([2]; dose group 6.25 mg/kg): 46 IU/L
ALT Pre-Bleed ([2]; dose group 12.5 mg/kg): 28 IU/L
AST Pre-Bleed ([2]; dose group 12.5 mg/kg): 44 IU/L
ALT Pre-Bleed ([2]; dose group 25 mg/kg): 30 IU/L
AST Pre-Bleed ([2]; dose group 25 mg/kg): 44 IU/L
ALT Pre-Bleed ([2]; dose group 50 mg/kg): 28 IU/L
AST Pre-Bleed ([2]; dose group 50 mg/kg): 48 IU/L
Organ Weights: Kidney ([3]; 6.25 mg/kg single i.p.): 100 % saline control
Organ Weights: Liver ([3]; 6.25 mg/kg single i.p.): 100 % saline control
Organ Weights: Spleen ([3]; 6.25 mg/kg single i.p.): 95 % saline control
Organ Weights: WAT ([3]; 6.25 mg/kg single i.p.): 90 % saline control
Organ Weights: Kidney ([3]; 12.5 mg/kg single i.p.): 97 % saline control
Organ Weights: Liver ([3]; 12.5 mg/kg single i.p.): 96 % saline control
Organ Weights: Spleen ([3]; 12.5 mg/kg single i.p.): 114 % saline control
Organ Weights: WAT ([3]; 12.5 mg/kg single i.p.): 73 % saline control
Organ Weights: Kidney ([3]; 25 mg/kg single i.p.): 103 % saline control
Organ Weights: Liver ([3]; 25 mg/kg single i.p.): 109 % saline control
Organ Weights: Spleen ([3]; 25 mg/kg single i.p.): 120 % saline control
Organ Weights: WAT ([3]; 25 mg/kg single i.p.): 97 % saline control
Organ Weights: Kidney ([3]; 50 mg/kg single i.p.): 104 % saline control
Organ Weights: Liver ([3]; 50 mg/kg single i.p.): 112 % saline control
Organ Weights: Spleen ([3]; 50 mg/kg single i.p.): 130 % saline control
Organ Weights: WAT ([3]; 50 mg/kg single i.p.): 77 % saline control
GCGR mRNA levels (GCGR mRNA; 6.25 mg/kg, Table 35 comparison ISIS 148364 & ISIS 386626): 7% of saline control
GCGR mRNA levels (GCGR mRNA; 12.5 mg/kg, Table 35 comparison ISIS 148364 & ISIS 386626): 3% of saline control
GCGR mRNA levels (GCGR mRNA; 25 mg/kg, Table 35 comparison ISIS 148364 & ISIS 386626): 8% of saline control
GCGR mRNA levels (GCGR mRNA; 50 mg/kg, Table 35 comparison ISIS 148364 & ISIS 386626): 0% of saline control
